According to publication PMC9833666, “Designing and identifying β-hairpin peptide macrocycles with antibiotic potential” (Science Advances, 2023):
Where two headings read alike, the source gives them in different places. Bridge positions count the residues as written; N and C are the ends. Peptide text beside a SMILES is read from it.

System: Escherichia coli W3110
Type: cell-based
Conditions: for Ec W3110 MIC MH: E. coli W3110, MH medium; for Ec W3110 MIC RPMI: E. coli W3110, RPMI medium
Procedure: MICs were performed by a modifiedClinical and Laboratory Standards Institute) procedure. […] Separately, E. coli W3110 or A. baumannii AB5075 was grown overnight in 5 ml of standard MH at 37°C. Cells from these cultures were diluted to a concentration of 5 × 10^5 to 6 × 10^5 cells/ml in either standard MH, MHII, RPMI, or fetal bovine serum, and 90 μl was added to each well of the 96-well plate containing diluted peptide. Plates were wrapped twice in parafilm and incubated at 37°C for 18 to 24 hours. Wells were examined by eye against wells with no bacteria for signs of growth. MICs were reported as the minimum concentration with no observable growth. In cases where triplicate samples differed, the concentration supported by the median of the three replicates was reported.

Structure (SMILES) | W3110 MIC (W3110) | Ec W3110 MIC MH | Ec W3110 MIC RPMI | W3110 MIC MH (W3110) | W3110 MIC RPMI (W3110) | W3110 MIC MH (E. coli W3110, standard Mueller-Hinton broth, 37°C, 18-24 h, median of n=3)
CC[C@H](C)[C@@H]1NC(=O)[C@H](CCCNC(=N)N)NC(=O)[C@H](C(C)C)NC(=O)[C@H](CCCNC(=N)N)NC(=O)[C@@H](N)CSSC[C@@H](C(=O)O)NC(=O)[C@H](CCC(=O)O)NC(=O)[C@H](C(C)C)NC(=O)[C@H](CCC(N)=O)NC(=O)[C@H](CC(C)C)NC(=O)[C@H](CCCCN)NC(=O)[C@H](CC(C)C)NC(=O)[C@H](CCCNC(=N)N)NC(=O)CNC(=O)[C@H](CCCNC(=N)N)NC(=O)[C@H](CCCNC(=N)N)NC(=O)[C@H](CC(=O)O)NC(=O)[C@H](CC(=O)O)NC(=O)[C@H](C(C)C)NC(=O)[C@H](CC(N)=O)NC1=O [SyRC-1] (H-CRVRINVDDRRGRLKLQVEC-OH; disulfide 1-20) | >256 µg/mL |  |  |  |  | 
CC[C@H](C)[C@@H]1NC(=O)[C@H](CCCCN)NC(=O)[C@H](C(C)C)NC(=O)CNC(=O)[C@H](CCCNC(=N)N)NC(=O)[C@H](CCCNC(=N)N)NC(=O)[C@H](CCCNC(=N)N)NC(=O)[C@H](CC(=O)O)NC(=O)[C@H](CC(N)=O)NC(=O)[C@H](CC(C)C)NC(=O)[C@H](CCCNC(=N)N)NC(=O)[C@H]([C@@H](C)CC)NC(=O)[C@H]([C@@H](C)O)NC(=O)[C@H](C(C)C)NC(=O)[C@@H](N)CSSC[C@@H](C(=O)O)NC(=O)[C@H](C(C)C)NC(=O)[C@H](CCC(=O)O)NC(=O)[C@H](C(C)C)NC(=O)[C@H](CO)NC1=O [SyRA-7] (H-CVTIRLNDRRRGVKISVEVC-OH; disulfide 1-20) | >256 µg/mL |  |  |  |  | 
CC[C@H](C)[C@@H]1NC(=O)[C@H]([C@@H](C)O)NC(=O)[C@H](CC(C)C)NC(=O)[C@@H](N)CSSC[C@@H](C(=O)O)NC(=O)[C@H](C(C)C)NC(=O)[C@H](CCC(=O)O)NC(=O)[C@H](C(C)C)NC(=O)[C@H](CO)NC(=O)[C@H](C(C)C)NC(=O)[C@H](CCCCN)NC(=O)[C@H](C(C)C)NC(=O)[C@H](CCCNC(=N)N)NC(=O)[C@H](CO)NC(=O)[C@H](CCCNC(=N)N)NC(=O)[C@H](CCCNC(=N)N)NC(=O)[C@H](CC(=O)O)NC(=O)[C@H](CC(=O)O)NC(=O)[C@H](CC(C)C)NC(=O)[C@H](CCCNC(=N)N)NC1=O [SyRA-1] (H-CLTIRLDDRRSRVKVSVEVC-OH; disulfide 1-20) | >256 µg/mL |  |  |  |  | 
CC[C@H](C)[C@@H]1NC(=O)[C@H](CCCNC(=N)N)NC(=O)[C@@H](N)CSSC[C@@H](C(=O)O)NC(=O)[C@H](CCC(N)=O)NC(=O)[C@H](C(C)C)NC(=O)[C@H](CCC(N)=O)NC(=O)[C@H](CC(C)C)NC(=O)[C@H](CCCNC(=N)N)NC(=O)[C@H](C(C)C)NC(=O)[C@H](CCCNC(=N)N)NC(=O)[C@H](CCCNC(=N)N)NC(=O)[C@H](CCCNC(=N)N)NC(=O)[C@H](CCCNC(=N)N)NC(=O)[C@H](CC(N)=O)NC(=O)[C@H](CC(N)=O)NC(=O)[C@H](C(C)C)NC(=O)[C@H](CC(=O)O)NC(=O)[C@H](C(C)C)NC(=O)[C@H](CCCCN)NC1=O [SySA-1] (H-CRIKVDVNNRRRRVRLQVQC-OH; disulfide 1-20; N-terminus and C-terminus assumed) |  | 128 µg/mL | 64 µg/mL |  | 64 µg/mL | 128 µg/mL
CC[C@H](C)[C@@H]1NC(=O)[C@H](CC(N)=O)NC(=O)[C@H](C(C)C)NC(=O)[C@H](CCCCN)NC(=O)[C@H]([C@@H](C)CC)NC(=O)[C@H](CCCNC(=N)N)NC(=O)[C@@H](N)CSSC[C@@H](C(=O)O)NC(=O)[C@H](CCC(=O)O)NC(=O)[C@H](CC(C)C)NC(=O)[C@H](CCC(=O)O)NC(=O)[C@H](CC(C)C)NC(=O)[C@H](CCCCN)NC(=O)[C@H](C(C)C)NC(=O)[C@H]([C@@H](C)O)NC(=O)[C@H](CCCNC(=N)N)NC(=O)[C@H](CCCNC(=N)N)NC(=O)[C@H](CCCNC(=N)N)NC(=O)[C@H](CC(N)=O)NC(=O)[C@H](CC(N)=O)NC1=O [SyRC-6] (H-CRIKVNINNRRRTVKLELEC-OH; disulfide 1-20) | >256 µg/mL |  |  |  |  | 
CC[C@H](C)[C@@H]1NC(=O)[C@H](CCCNC(=N)N)NC(=O)[C@H](C(C)C)NC(=O)[C@H](CCCNC(=N)N)NC(=O)[C@H](CCCNC(=N)N)NC(=O)[C@H](CCCNC(=N)N)NC(=O)[C@H](CCCNC(=N)N)NC(=O)[C@H](CC(N)=O)NC(=O)[C@H](CC(N)=O)NC(=O)[C@H](C(C)C)NC(=O)[C@H](CCCNC(=N)N)NC(=O)[C@H](C(C)C)NC(=O)[C@H]([C@@H](C)O)NC(=O)[C@H](C(C)C)NC(=O)[C@@H](N)CSSC[C@@H](C(=O)O)NC(=O)[C@H](C(C)C)NC(=O)[C@H](CCC(N)=O)NC(=O)[C@H](C(C)C)NC(=O)[C@H](CO)NC1=O [SySA-11] (H-CVTVRVNNRRRRVRISVQVC-OH; disulfide 1-20; N-terminus and C-terminus assumed) |  | 64 µg/mL | 16 µg/mL | 64 µg/mL | 16 µg/mL | 
CC[C@H](C)[C@@H]1NC(=O)[C@H](CCCNC(=N)N)NC(=O)[C@H]([C@@H](C)CC)NC(=O)[C@H](CCCNC(=N)N)NC(=O)[C@@H](N)CSSC[C@@H](C(=O)O)NC(=O)[C@H](CCC(=O)O)NC(=O)[C@H](C(C)C)NC(=O)[C@H](CCC(N)=O)NC(=O)[C@H](CC(C)C)NC(=O)[C@H](CCCNC(=N)N)NC(=O)[C@H](C(C)C)NC(=O)[C@H]([C@@H](C)O)NC(=O)CNC(=O)CNC(=O)CNC(=O)[C@H](CC(N)=O)NC(=O)[C@H](CC(=O)O)NC(=O)[C@H](C(C)C)NC(=O)[C@H](CC(N)=O)NC1=O [SyRC-12] (H-CRIRINVDNGGGTVRLQVEC-OH; disulfide 1-20) | >256 µg/mL |  |  |  |  | 

More lines, now with the values ahead:

W3110 MIC (W3110) | Ec W3110 MIC MH | Ec W3110 MIC RPMI | W3110 MIC MH (W3110) | W3110 MIC RPMI (W3110) | W3110 MIC MH (E. coli W3110, standard Mueller-Hinton broth, 37°C, 18-24 h, median of n=3) | Structure (SMILES)
 | 32 µg/mL | 16 µg/mL | 32 µg/mL | 16 µg/mL |  | CC[C@H](C)[C@@H]1NC(=O)[C@H](CCCNC(=N)N)NC(=O)[C@H](C(C)C)NC(=O)[C@@H](N)CSSC[C@@H](C(=O)O)NC(=O)[C@H](C(C)C)NC(=O)[C@H](CCC(N)=O)NC(=O)[C@H](C(C)C)NC(=O)[C@H](CO)NC(=O)[C@H](C(C)C)NC(=O)[C@H](CCCCN)NC(=O)[C@H](C(C)C)NC(=O)[C@H](CCCNC(=N)N)NC(=O)[C@H](CCCNC(=N)N)NC(=O)[C@H](CCCNC(=N)N)NC(=O)[C@H](CCCNC(=N)N)NC(=O)[C@H](CC(N)=O)NC(=O)[C@H](CC(N)=O)NC(=O)[C@H](C(C)C)NC(=O)[C@H](CCCNC(=N)N)NC1=O [SySA-62] (H-CVRIRVNNRRRRVKVSVQVC-OH; disulfide 1-20; N-terminus and C-terminus assumed)
 | 64 µg/mL | 32 µg/mL | 64 µg/mL | 32 µg/mL |  | CC(C)C[C@@H]1NC(=O)[C@H](CCCNC(=N)N)NC(=O)[C@H](CCCNC(=N)N)NC(=O)[C@H](CCCNC(=N)N)NC(=O)CNC(=O)[C@H](CC(N)=O)NC(=O)[C@H](CC(N)=O)NC(=O)[C@H](C(C)C)NC(=O)[C@H](CCCNC(=N)N)NC(=O)[C@H](C(C)C)NC(=O)[C@H](CCCNC(=N)N)NC(=O)[C@H](C(C)C)NC(=O)[C@@H](N)CSSC[C@@H](C(=O)O)NC(=O)[C@H](C(C)C)NC(=O)[C@H](CCC(N)=O)NC(=O)[C@H](CC(C)C)NC(=O)[C@H](CO)NC(=O)[C@H](C(C)C)NC(=O)[C@H](CCCCN)NC1=O [SySA-79] (H-CVRVRVNNGRRRLKVSLQVC-OH; disulfide 1-20; N-terminus and C-terminus assumed)
 | 128 µg/mL | 16 µg/mL | 128 µg/mL | 16 µg/mL |  | CC[C@H](C)[C@@H]1NC(=O)[C@H](CCCCN)NC(=O)[C@H](CC(C)C)NC(=O)[C@H](CCCNC(=N)N)NC(=O)CNC(=O)CNC(=O)[C@H](CCCNC(=N)N)NC(=O)[C@H](CC(N)=O)NC(=O)[C@H](CC(N)=O)NC(=O)[C@H](C(C)C)NC(=O)[C@H](CCCNC(=N)N)NC(=O)[C@H](C(C)C)NC(=O)[C@H](CCCNC(=N)N)NC(=O)[C@H](C(C)C)NC(=O)[C@@H](N)CSSC[C@@H](C(=O)O)NC(=O)[C@H](C(C)C)NC(=O)[C@H](CCC(N)=O)NC(=O)[C@H](C(C)C)NC(=O)[C@H](CO)NC1=O [SySA-83] (H-CVRVRVNNRGGRLKISVQVC-OH; disulfide 1-20; N-terminus and C-terminus assumed)
 | 32 µg/mL | 8 µg/mL | 32 µg/mL | 8 µg/mL |  | CC[C@H](C)[C@@H]1NC(=O)[C@H](CCCCN)NC(=O)[C@H](CC(C)C)NC(=O)CNC(=O)[C@H](CCCNC(=N)N)NC(=O)[C@H](CCCNC(=N)N)NC(=O)[C@H](CCCNC(=N)N)NC(=O)[C@H](CC(N)=O)NC(=O)[C@H](CC(N)=O)NC(=O)[C@H](CC(C)C)NC(=O)[C@H](CCCNC(=N)N)NC(=O)[C@H](C(C)C)NC(=O)[C@H](CCCNC(=N)N)NC(=O)[C@H](C(C)C)NC(=O)[C@@H](N)CSSC[C@@H](C(=O)O)NC(=O)[C@H](C(C)C)NC(=O)[C@H](CCC(N)=O)NC(=O)[C@H](CC(C)C)NC(=O)[C@H]([C@@H](C)O)NC1=O [SySA-88] (H-CVRVRLNNRRRGLKITLQVC-OH; disulfide 1-20; N-terminus and C-terminus assumed)
 | 64 µg/mL | 8 µg/mL | 64 µg/mL | 8 µg/mL |  | CC[C@H](C)[C@@H]1NC(=O)[C@H](CCCNC(=N)N)NC(=O)[C@H](CC(C)C)NC(=O)[C@@H](N)CSSC[C@@H](C(=O)O)NC(=O)[C@H](C(C)C)NC(=O)[C@H](CCC(N)=O)NC(=O)[C@H](CC(C)C)NC(=O)[C@H](CO)NC(=O)[C@H](C(C)C)NC(=O)[C@H](CCCCN)NC(=O)[C@H](CC(C)C)NC(=O)CNC(=O)[C@H](CCCNC(=N)N)NC(=O)[C@H](CCCNC(=N)N)NC(=O)[C@H](CCCNC(=N)N)NC(=O)[C@H](CC(N)=O)NC(=O)[C@H](CC(N)=O)NC(=O)[C@H](CC(C)C)NC(=O)[C@H](CCCNC(=N)N)NC1=O [SySA-30] (H-CLRIRLNNRRRGLKVSLQVC-OH; disulfide 1-20; N-terminus and C-terminus assumed)
